Here are results for 6 compounds from US11254666B2, “Compound as GLS1 inhibitor” (MEDSHINE DISCOVERY INC., priority 2017, dated 2022).

Data set [1] deals with T1, GLS1 (Homo sapiens, UniProt O94925).
T1 sequence (O94925 55-669): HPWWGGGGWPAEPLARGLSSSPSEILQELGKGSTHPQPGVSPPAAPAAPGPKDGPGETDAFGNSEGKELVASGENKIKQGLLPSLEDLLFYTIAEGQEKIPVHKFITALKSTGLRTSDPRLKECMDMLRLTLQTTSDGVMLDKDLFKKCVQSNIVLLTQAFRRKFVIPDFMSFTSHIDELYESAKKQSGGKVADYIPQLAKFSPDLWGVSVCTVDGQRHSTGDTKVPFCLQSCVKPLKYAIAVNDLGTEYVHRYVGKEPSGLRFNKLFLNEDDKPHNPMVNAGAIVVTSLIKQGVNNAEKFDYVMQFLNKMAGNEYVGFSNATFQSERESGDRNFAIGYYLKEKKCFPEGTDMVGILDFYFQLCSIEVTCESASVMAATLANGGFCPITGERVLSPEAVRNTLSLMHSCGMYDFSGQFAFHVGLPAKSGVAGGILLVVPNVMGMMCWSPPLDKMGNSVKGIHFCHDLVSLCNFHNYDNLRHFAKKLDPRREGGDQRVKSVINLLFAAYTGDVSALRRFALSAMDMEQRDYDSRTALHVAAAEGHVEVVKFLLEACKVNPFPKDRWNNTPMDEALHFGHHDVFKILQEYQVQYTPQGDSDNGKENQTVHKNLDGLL
Nature of the data set: Activity test of compounds in GLS1 coupling reaction system. Type of data set: biochemical. The conditions noted are these: 2 nM GLS1, 4.5 mM L-glutamine, 1 hour pre-incubation at 23° C. As to the method:
Experimental Example 1: Activity Test of Compounds in GLS1 Coupling Reaction System
Preparation of Reaction Reagents: Relevant reagents should be prepared on the day of the experiment: Preparation of 1× assay buffer The final concentration of each component in the final experimental buffer was: 50 mM Tris-HCl pH 8.0, 0.25 mM EDTA, 150 mM K2HPO4, 0.1 mg/mL BSA, 1 mM DTT, 0.01% Triton X-100 Preparation of 2× experimental component solutions: The reagents were taken out and placed on ice to melt naturally for later use; 1× assay buffer was used to prepare “solution A” (solution A contains: L-glutamine, NAD+(nicotinamide adenine dinucleotide) and GLDH (glutamic acid dehydrogenase)). The final concentrations of each component in the final experimental reaction systemwere 4.5 mM L-glutamine, 2 mM NAD+ 4 U/mL GLDH. 1× assay buffer was used to prepare “solution B” - - - 2× enzyme solution (solution B contains GLS1 enzyme). The final concentration of GLS1 in the final experimental reaction system was 2 nM. Experimental Steps: The experiment plates are prepared by Labcyte ECHO before the experiment, which contain the compounds gradient concentrations and the corresponding DMSO solution: The experimental plates were taken out, and 20 μL of solution B (enzyme GLS1 solution) was added to columns 2 to 23 of the experimental plate, then 20 μL assay buffer was added to columns 1 and 24 as Min control in the experimental system. Then the experimental plates were centrifuged at 1000 rpm for 30 seconds; and sealed the membrane, and the plates were incubated at 23° C. for 1 hour. After the incubation of 1 hour, 20 μL of solution A was added to columns 1 to 24 of the experimental plates (ie, Samples were added to the whole plate). The experimental plates were centrifuged at 1000 rpm for 30 seconds. The experimental plates were placed on the SpectraMax 340PC, and the plates were continuously read for 20 minutes in dynamic mode (the reading interval was set to 1 minute).

The nature of data set [2]: Evaluation of compounds pharmacokinetics in mice. Type of data set: in vivo. Conditions: mouse, plasma, female C57BL/6 mice. The protocol: Experimental Example 2: Evaluation of Compounds Pharmacokinetics
Experimental purpose: To test the pharmacokinetics of compounds in mice
C57BL/6 mice (female, 7-9 weeks old, Shanghai SLAC)
Experimental procedure: C57BL/6 mice (C57BL/6) were administered a clear solution obtained by dissolving test compounds via tail vein injection and intragastric administration (overnight fast, 7-9 weeks old). After administration of the test compounds, the intravenous group was at 0.0833, 0.25, 0.5, 1, 2, 4, 6, 8 and 24 h, and the gavage group was at 0.0833, 0.25, 0.5, 1, 2, 4, 6, 8 and 24, blood was collected from the mandibular vein and centrifuged to obtain plasma. LC-MS/MS method was used to determine blood drug concentration, and WinNonlin™ Version 6.3 pharmacokinetic software was used to calculate the relevant pharmacokinetic parameters by non-compartment model linear logarithmic trapezoid method.

As a reminder, the IC50 is the concentration that inhibits the measured activity by half. In data set [1], `O=C(Cc1cccnc1)Nc1nnc(NC2CCN(c3cccnn3)CC2)s1` [Example 5] yielded a half-inhibitory concentration (IC50) of 200 to 1000 nM.

Take `O=C(Cc1cc(Cl)ccc1Cl)Nc1nnc(NC2CCN(c3cccnn3)CC2)s1` [Example 7]: in data set [1], the IC50 is 200 to 1000 nM.

Compound `O=C(Cc1cc(Cl)ccc1F)Nc1nnc(NC2CCN(c3cccnn3)CC2)s1` [Example 8] had an IC50 in data set [1] of 200 to 1000 nM.

As to `O=C(Cc1cc(OC(F)(F)F)ccc1F)Nc1nnc(NC2CCN(c3cccnn3)CC2)s1` [Example 9], the IC50 in data set [1] lay in the range of 200 to 1000 nM.

In turn, `CO[C@H](C(=O)Nc1nnc(NC2CCN(c3cccnn3)CC2)s1)c1cccnc1` [Example 16] came in with an IC50 in data set [1] of 200 to 1000 nM.

By bioavailability is commonly meant the share of a dose that reaches the circulation, judged against a reference dose that is usually intravenous. Low values mean poor availability, high ones good availability. One may read the AUC(0-inf) as the area under the concentration-time curve extrapolated to infinity. A lower AUC(0-inf) goes with less exposure. With `CO[C@H](C(=O)Nc1nnc(NC2CCN(c3cccnn3)CC2)s1)c1cc(OC(F)(F)F)ccc1F` [Example 17], in data set [2] (po, intragastric vs tail vein), the bioavailability worked out at 91.3%. In data set [2] (po, tail vein injection and intragastric administration, route and dose not given, read-out: T1/2 (half-life) (converted)), the half-life was 2.52 h. In data set [2] (route and dose not given), this compound came in with an AUC(0-inf) of 26.1 µM·h. In addition, in data set [2] (route and dose not given, read-out: Cmax (maximum concentration)), the Cmax is 11.6 µM. The same compound yielded an IC50 in data set [1] below 200 nM.
